In ChEMBL document CHEMBL4425142, “Inhibitors of diacylglycerol lipases in neurodegenerative and metabolic disorders” (Bioorg Med Chem Lett, 2016):

Experiments:
[1] = target: T1, Diacylglycerol lipase-alpha (Homo sapiens, UniProt Q9Y4D2); assay: Inhibition of human C-terminal HA-tagged DAGLalpha expressed in HEK293F cell membrane fractions using PNP butyrate as substrate by colorimetric surrogate substrate assay
T1 sequence (Q9Y4D2 whole entry): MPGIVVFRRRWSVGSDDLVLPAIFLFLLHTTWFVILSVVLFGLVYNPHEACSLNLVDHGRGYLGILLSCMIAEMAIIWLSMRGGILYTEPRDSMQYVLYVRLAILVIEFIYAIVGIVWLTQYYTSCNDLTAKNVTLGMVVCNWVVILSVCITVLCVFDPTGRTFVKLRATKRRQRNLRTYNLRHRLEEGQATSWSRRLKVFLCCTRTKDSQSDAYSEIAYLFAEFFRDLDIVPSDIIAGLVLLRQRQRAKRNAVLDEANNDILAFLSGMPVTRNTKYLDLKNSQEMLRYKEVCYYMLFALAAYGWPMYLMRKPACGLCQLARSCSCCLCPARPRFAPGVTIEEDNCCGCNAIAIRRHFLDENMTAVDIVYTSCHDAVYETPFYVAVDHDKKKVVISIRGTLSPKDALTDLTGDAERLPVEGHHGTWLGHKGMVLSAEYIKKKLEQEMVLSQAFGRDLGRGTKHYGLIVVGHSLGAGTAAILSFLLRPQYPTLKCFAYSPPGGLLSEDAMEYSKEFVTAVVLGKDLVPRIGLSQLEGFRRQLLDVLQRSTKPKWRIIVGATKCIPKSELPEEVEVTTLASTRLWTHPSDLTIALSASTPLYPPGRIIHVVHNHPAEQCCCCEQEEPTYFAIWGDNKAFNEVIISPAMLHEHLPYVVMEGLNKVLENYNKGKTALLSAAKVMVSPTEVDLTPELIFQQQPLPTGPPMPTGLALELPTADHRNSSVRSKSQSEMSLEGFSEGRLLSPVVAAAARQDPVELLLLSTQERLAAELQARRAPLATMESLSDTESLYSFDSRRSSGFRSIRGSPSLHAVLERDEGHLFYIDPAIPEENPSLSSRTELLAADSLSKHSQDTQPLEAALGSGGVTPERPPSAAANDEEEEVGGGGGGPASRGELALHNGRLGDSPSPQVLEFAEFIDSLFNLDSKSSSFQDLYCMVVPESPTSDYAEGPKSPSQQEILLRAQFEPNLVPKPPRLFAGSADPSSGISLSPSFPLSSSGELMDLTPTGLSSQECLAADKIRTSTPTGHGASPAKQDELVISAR

[2] = target: T1, Diacylglycerol lipase-alpha; assay: Inhibition of human C-terminal HA-tagged DAGLalpha expressed in HEK293F cell membrane fractions using DiFMU-octanoate as substrate by fluorogenic surrogate substrate assay
[3] = target: T2, Diacylglycerol lipase-alpha (Mus musculus, UniProt Q6WQJ1); assay: Inhibition of DAGLalpha in mouse brain proteome pre-incubated for 30 mins followed by ABP MB064 probe addition for 15 mins by ABPP assay; assay type: subcellular
T2 sequence (Q6WQJ1 whole entry): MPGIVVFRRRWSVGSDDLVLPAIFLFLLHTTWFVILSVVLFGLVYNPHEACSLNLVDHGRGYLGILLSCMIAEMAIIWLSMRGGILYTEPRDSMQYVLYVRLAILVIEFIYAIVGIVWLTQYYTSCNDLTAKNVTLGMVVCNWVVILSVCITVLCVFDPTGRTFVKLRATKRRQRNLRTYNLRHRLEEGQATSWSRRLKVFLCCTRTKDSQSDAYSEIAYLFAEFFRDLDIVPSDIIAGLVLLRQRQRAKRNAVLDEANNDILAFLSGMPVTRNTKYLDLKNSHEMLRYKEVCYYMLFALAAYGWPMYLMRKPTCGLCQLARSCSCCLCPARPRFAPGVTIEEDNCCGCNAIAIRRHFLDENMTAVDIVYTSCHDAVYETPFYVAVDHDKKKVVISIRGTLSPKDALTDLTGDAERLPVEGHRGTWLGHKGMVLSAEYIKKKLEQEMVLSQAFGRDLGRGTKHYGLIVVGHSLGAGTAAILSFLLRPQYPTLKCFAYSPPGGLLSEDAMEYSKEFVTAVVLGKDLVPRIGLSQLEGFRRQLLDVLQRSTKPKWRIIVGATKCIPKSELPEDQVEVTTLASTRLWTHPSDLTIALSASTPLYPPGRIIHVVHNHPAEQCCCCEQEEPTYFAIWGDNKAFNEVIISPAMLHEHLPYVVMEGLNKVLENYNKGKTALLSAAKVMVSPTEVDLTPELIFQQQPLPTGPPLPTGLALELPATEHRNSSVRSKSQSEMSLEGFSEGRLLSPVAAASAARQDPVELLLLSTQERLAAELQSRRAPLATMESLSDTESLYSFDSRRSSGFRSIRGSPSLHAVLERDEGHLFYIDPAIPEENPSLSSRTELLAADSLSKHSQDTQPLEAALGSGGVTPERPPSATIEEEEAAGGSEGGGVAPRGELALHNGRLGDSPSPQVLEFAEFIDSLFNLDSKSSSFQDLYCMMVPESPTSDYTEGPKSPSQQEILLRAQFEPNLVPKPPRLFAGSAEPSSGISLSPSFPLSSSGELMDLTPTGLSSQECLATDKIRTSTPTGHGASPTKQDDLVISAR

[4] = target: T3, Diacylglycerol lipase-beta (Mus musculus, UniProt Q91WC9); assay: Inhibition mouse DAGLbeta expressed in HEK293T cell membrane fractions using DAG as substrate preincubated for 30 mins followed by ABP HT01 probe addition measured after 30 mins in presence of probe by gel-based ABPP competition assay
T3 sequence (Q91WC9 whole entry): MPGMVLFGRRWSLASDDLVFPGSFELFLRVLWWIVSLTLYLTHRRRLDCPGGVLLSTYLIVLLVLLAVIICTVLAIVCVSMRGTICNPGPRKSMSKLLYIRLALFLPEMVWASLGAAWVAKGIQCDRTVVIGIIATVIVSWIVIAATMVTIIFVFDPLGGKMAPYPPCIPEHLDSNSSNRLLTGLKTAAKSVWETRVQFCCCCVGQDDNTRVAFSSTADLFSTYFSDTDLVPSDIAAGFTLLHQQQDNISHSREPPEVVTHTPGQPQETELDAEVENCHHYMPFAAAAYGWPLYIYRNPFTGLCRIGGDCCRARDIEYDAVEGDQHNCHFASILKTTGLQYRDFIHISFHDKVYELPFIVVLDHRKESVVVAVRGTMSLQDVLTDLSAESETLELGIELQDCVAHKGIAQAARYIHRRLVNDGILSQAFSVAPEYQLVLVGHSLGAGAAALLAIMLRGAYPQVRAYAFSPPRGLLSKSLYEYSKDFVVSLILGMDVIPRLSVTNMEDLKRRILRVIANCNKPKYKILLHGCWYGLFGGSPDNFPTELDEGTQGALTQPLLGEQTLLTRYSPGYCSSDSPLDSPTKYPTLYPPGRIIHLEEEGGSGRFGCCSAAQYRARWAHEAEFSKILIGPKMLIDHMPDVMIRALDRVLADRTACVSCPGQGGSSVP

[5] = target: T1, Diacylglycerol lipase-alpha; assay: Inhibition human DAGLalpha expressed in HEK293T cell membrane fractions using DAG as substrate preincubated for 30 mins followed by ABP HT01 probe addition measured after 30 mins in presence of probe by gel-based ABPP competition assay
[6] = target: T3, Diacylglycerol lipase-beta; assay: Inhibition of V-tagged mouse DAGLbeta expressed in […] cell membrane fractions using SAG as substrate assessed as accumulation of 2-AG preincubated for 30 mins followed by substrate addition measured after 30 mins by LC-MS natural substrate assay
[7] = target: T1, Diacylglycerol lipase-alpha; assay: Inhibition of human GST-tagged DAGLalpha expressed in HEK293F cell membranes using 1-stearoyl-2-arachidonoyl-sn-glycerol as substrate preincubated for 20 mins followed by substrate addition by enzyme coupled natural substrate assay
[8] = target: T1, Diacylglycerol lipase-alpha; assay: Inhibition of human DAGLalpha expressed in HEK293T cell membrane fractions using PNP butyrate as substrate preincubated for 20 mins followed by substrate addition by colorimetric surrogate substrate assay
[9] = target: T4, Diacylglycerol lipase-beta (Homo sapiens, UniProt Q8NCG7); assay: Inhibition of human GST-tagged DAGLbeta catalytic domain expressed in HEK293F cell membranes using EnzChek as substrate preincubated for 5 mins followed by substrate addition by fluorogenic surrogate substrate assay
T4 sequence (Q8NCG7 whole entry): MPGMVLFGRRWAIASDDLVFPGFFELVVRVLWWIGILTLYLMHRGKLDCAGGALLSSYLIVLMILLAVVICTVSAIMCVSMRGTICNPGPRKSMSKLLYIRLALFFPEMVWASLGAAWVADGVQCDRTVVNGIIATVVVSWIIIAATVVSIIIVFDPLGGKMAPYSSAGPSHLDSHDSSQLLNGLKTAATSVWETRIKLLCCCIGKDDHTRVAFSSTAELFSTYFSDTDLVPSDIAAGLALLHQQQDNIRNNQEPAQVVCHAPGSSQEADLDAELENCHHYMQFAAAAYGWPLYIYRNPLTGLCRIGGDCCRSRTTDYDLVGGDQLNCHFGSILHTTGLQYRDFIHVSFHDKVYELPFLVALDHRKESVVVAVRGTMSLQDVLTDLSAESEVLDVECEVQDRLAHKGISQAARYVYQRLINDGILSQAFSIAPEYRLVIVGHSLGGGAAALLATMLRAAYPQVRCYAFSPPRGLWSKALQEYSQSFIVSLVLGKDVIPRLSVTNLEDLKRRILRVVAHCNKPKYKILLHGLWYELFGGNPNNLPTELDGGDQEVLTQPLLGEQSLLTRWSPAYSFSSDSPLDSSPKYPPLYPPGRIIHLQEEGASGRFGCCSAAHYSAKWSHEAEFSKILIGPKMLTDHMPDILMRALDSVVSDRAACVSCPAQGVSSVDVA

Cannabinoid receptor 1 = Cannabinoid receptor 1 (Homo sapiens, UniProt P21554); assay: Antagonist activity at CBR1 (unknown origin)
Cannabinoid receptor 1, sequence (P21554 whole entry): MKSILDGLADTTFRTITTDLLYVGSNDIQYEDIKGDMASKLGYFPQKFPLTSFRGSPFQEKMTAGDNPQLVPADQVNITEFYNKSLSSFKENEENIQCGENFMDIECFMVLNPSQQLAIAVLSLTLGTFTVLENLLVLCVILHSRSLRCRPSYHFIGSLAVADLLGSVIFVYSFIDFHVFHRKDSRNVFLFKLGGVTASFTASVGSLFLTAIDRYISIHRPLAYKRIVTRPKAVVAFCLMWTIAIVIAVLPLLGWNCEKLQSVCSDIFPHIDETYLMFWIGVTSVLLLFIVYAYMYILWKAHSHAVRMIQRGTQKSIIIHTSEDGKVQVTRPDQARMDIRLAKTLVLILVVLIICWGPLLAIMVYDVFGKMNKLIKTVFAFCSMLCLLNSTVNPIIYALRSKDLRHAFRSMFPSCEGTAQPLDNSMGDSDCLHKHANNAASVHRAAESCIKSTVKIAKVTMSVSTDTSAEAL

[10] = target: T3, Diacylglycerol lipase-beta; assay: Inhibition of full length 3' FLAG-tagged mouse DAGLbeta expressed in African green monkey COS7 cells using sn-1-stearoyl-[14C]-arachidonoyl-glycerol as substrate preincubated for 15 mins followed by substrate addition measured after 30 mins by radiometric natural substrate assay; assay type: cell-based
[11] = target: T3, Diacylglycerol lipase-beta; assay: Inhibition of mouse DAGLbeta expressed in HEK293T cell membranes using SAG as substrate preincubated for 20 mins followed by substrate addition by enzyme coupled natural substrate assay

Row | Structure (SMILES) | IC50 [3] [nM] | IC50 [4] [nM] | IC50 [5] [nM] | also measured
1 | O=C(NCCCCCCNC(=O)ON=C1CCCCC1)ON=C1CCCCC1 | – | – | – | IC50 [1]: 5010 nM; IC50 [2]: 25100 nM
2 | O=C(CCCCCc1ccccc1)c1nc2ncccc2o1 | 501 | – | – | –
3 | COc1ccccc1-c1ccc(-c2cn(C(=O)N3CCCCC3Cc3ccccc3)nn2)cc1 (stereo not drawn) | – | 63.1 | 126 | IC50 [6]: 79.4 nM
4 | O=C(N1CCCCC1Cc1ccccc1)n1cc(-c2ccc(-c3ccccc3)cc2)nn1 (stereo not drawn) | – | 39.8 | 2510 | IC50 [7]: 25.1 nM; IC50 [6]: 79.4 nM
5 | CC1(C)CCc2cc(S(=O)(=O)N(CC(=O)O)Cc3ccc(Oc4ccccc4)cc3)ccc2O1 | 126 | – | – | IC50 [7]: 1000 nM
6 | C#CCO[C@@H]1CC[C@H](Cc2ccccc2)N(C(=O)n2ncc(C(O)(c3ccc(F)cc3)c3ccc(F)cc3)n2)C1 | – | 5.01 | 1.26 | –
7 | Cc1ccc(-c2cnc3nc(C(=O)CCCCCc4ccccc4)oc3c2)cc1 | 25.1 | – | – | IC50 [8]: 3.16 nM
8 | CCCCCCCCCCCC(C[C@@H]1OC(=O)[C@H]1CCCCCC)OC(=O)[C@@H](NC=O)C(C)CC (stereo partly drawn) | – | – | – | IC50 [9]: 6.31 nM; Ki (Cannabinoid receptor 1): 6000 nM
9 | CCCCCCCCCCCC(C[C@@H]1OC(=O)[C@H]1CCCCCC)OC(=O)[C@H](CC(C)C)NC=O (stereo partly drawn) | – | 2000 | – | IC50 [10]: 100 nM
10 | CC(C)(C)OC(=O)N1CCN(C(=O)n2cc(-c3ccc(OC(F)(F)F)cc3)nn2)C(Cc2ccccc2)C1 (stereo not drawn) | – | 2.51 | 0.501 | IC50 [11]: 7.94 nM
